In patent US20260042764A1, “COMPOSITIONS AND METHODS FOR INHIBITION OF KRAS” (TheRas, Inc., priority 2022, published 2026):
pIC50: −log10 of the molar value.

Key:
[1] = target: T1, Avi-KRAS G12D (1-169) GppNHp/RAF1 RBD-3xFLAG (52-151) (Homo sapiens, UniProt P01116, G12D); test: Raf1-KRAS G12D-GppNHP disruption HTRF assay (Biological Example 1); format: binding
T1 construct: Avi-KRAS G12D (1-169)
Summary of the method: (§1)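 Compound disruption of KRAS-GppNHp/RAF1 RBD binding read by HTRF after two sequential 1 h room-temperature incubations (protein mix, then detection reagents), shaken at 700 rpm. Buffer Tris pH 7.5 with MgCl2, BSA, Tween and 10% DMSO; results given as percent activity relative to DMSO (100%).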

[2] = target: T2, Avi-KRAS G12R (1-169) GppNHp/RAF1 RBD-3xFLAG (52-151) (Homo sapiens, UniProt P01116, G12R); test: Raf1-KRAS G12R-GppNHP disruption HTRF assay (Biological Example 1); format: binding
T2 construct: Avi-KRAS G12R (1-169)
T2 sequence (P01116 1-169 isoform P01116-2 G12R): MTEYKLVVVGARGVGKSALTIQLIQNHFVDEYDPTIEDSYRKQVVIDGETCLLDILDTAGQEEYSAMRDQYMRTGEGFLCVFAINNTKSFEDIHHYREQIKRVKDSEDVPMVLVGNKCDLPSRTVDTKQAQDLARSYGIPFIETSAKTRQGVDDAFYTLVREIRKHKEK
Summary of the method: as §1

[3] = target: T3, Avi-KRAS G12V (1-169) GppNHp/RAF1 RBD-3xFLAG (52-151) (Homo sapiens, UniProt P01116, G12V); test: Raf1-KRAS G12V-GppNHP disruption HTRF assay (Biological Example 1); format: binding
T3 construct: Avi-KRAS G12V (1-169)
T3 sequence (P01116 1-169 isoform P01116-2 G12V): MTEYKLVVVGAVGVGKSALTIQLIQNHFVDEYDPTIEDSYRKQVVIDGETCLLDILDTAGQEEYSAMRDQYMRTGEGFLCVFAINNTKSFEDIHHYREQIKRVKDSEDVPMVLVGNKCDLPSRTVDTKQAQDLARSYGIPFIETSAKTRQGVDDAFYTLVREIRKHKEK
Summary of the method: as §1

[4] = target: T4, Avi-KRAS WT (1-169) GppNHp/RAF1 RBD-3xFLAG (52-151) (Homo sapiens, UniProt P01116); test: Raf1-KRAS WT-GppNHP disruption HTRF assay (Biological Example 1); format: binding
T4 construct: Avi-KRAS WT (1-169)
T4 sequence (P01116 1-169 isoform P01116-2): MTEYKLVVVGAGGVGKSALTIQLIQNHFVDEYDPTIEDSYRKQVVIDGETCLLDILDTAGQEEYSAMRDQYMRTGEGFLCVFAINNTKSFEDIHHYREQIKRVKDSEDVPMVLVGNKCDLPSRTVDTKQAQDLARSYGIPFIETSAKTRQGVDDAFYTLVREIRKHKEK
Summary of the method: as §1

GP2d cells (KRAS G12D) = test: Cell-based pERK HTRF assay in GP2d cell (Biological Example 2); conditions: GP2d (KRAS G12D) cells, pERK HTRF
Summary of the method: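 Phospho-ERK in lysed cells was detected by HTRF using Eu cryptate and d2 antibodies, read between 4 and 24 h at room temperature. Prior to lysis, KRAS G12D GP2d cells, seeded the day before in DMEM with 10% FBS, were exposed to compounds for 60 min. Compounds were tested as 9-point half-log curves from 1 μM or 100 nM top, with 0.25% DMSO.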

SW620 cells (KRAS G12V) = test: Cell-based pERK HTRF assay in SW620 cell (Biological Example 4); conditions: pERK HTRF
Summary of the method: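 SW620 (KRAS G12V) cells seeded at 3×10^4/well in RPMI, 10% FBS, then treated next day for 4 h with a 9-point half-log series from 1 μM top (0.25% DMSO). Lysates analyzed for pERK by HTRF (Eu cryptate/d2 antibodies, 4–24 h at room temperature), excitation 320 nm, emission 615 nm.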

[5] = KRAS G12D, GppNHp-loaded, class symbols
[6] = KRAS G12R, GppNHp-loaded, class symbols
[7] = KRAS G12V, GppNHp-loaded, class symbols
[8] = KRAS WT, GppNHp-loaded, class symbols
[9] = Homo sapiens, SW-620, SW620 (KRAS G12V) cells, class symbols
[10] = Homo sapiens, SW-620, SW620 (KRAS G12V) cells
[11] = KRAS G12D, GppNHp-loaded, Table 11
[12] = KRAS G12R, GppNHp-loaded, Table 11
[13] = KRAS G12V, GppNHp-loaded, Table 11
[14] = KRAS WT, GppNHp-loaded, Table 11

T1 sequence (P01116 1-169 isoform P01116-2 G12D): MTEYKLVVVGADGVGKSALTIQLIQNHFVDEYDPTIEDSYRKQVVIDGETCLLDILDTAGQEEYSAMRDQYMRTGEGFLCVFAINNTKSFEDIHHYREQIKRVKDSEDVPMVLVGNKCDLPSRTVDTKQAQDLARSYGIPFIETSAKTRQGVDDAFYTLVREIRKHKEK

Row | pIC50 [1, 5] | pIC50 [2, 6] | pIC50 [3, 7] | pIC50 [4, 8] | pIC50 (GP2d cells (KRAS G12D); GP2d, class symbols) | pIC50 (SW620 cells (KRAS G12V); [9]) | pIC50 (SW620 cells (KRAS G12V); [10]) | pIC50 (GP2d cells (KRAS G12D); GP2d) | SMILES | further results
1 | > 7.00 | > 7.00 | > 7.00 | > 7.00 | > 7.00 | > 7.00 | – | – | [2H]C([2H])([2H])OC(=O)N1CC[C@H](N(CC)c2nc(OC[C@@]34CCCN3C[C@H](F)C4)nc3c(F)c(-c4ccc(F)c5sc(N)c(C#N)c45)c(C(F)(F)F)cc23)C1 (atropisomer, axis not shown) [Compound 659] | –
2 | 6.00 to 7.00 | 6.00 to 7.00 | 6.00 to 7.00 | 6.00 to 7.00 | > 7.00 | > 7.00 | – | – | C/C=C/C(=O)N1CC[C@@H](N(C)c2nc(OC[C@@]34CCCN3C[C@H](F)C4)nc3c(F)c(-c4ccc(F)c5sc(N)c(C#N)c45)c(C(F)(F)F)cc23)[C@H]1C [Compound 670] | –
3 | 6.00 to 7.00 | 6.00 to 7.00 | 6.00 to 7.00 | 6.00 to 7.00 | > 7.00 | > 7.00 | – | – | CCN(c1nc(OC[C@@]23CCCN2C[C@H](F)C3)nc2c(F)c(-c3ccc(F)c4sc(N)c(C#N)c34)c(C(F)(F)F)cc12)[C@H]1C[C@@H](COC)N(C(C)=O)C1 (atropisomer, axis not shown) [Compound 632] | –
4 | > 7.00 | > 7.00 | 6.00 to 7.00 | > 7.00 | > 7.00 | > 7.00 | – | – | CCN(c1nc(OC[C@@]23CCCN2C[C@H](F)C3)nc2c(F)c(-c3ccc(F)c4sc(N)c(C#N)c34)c(C(F)(F)F)cc12)[C@H]1C[C@H](C)N(C(=O)[C@H](C)OC)C1 (atropisomer, axis not shown) [Compound 739] | –
5 | – | – | – | – | – | – | > 7.00 | > 7.00 | CN(CCS(C)(=O)=O)c1nc(OC[C@@]23CCCN2C[C@H](F)C3)nc2c(F)c(-c3ccc(F)c4sc(N)c(C#N)c34)c(C(F)(F)F)cc12 [Compound 217] | pIC50 [1, 11]: 6.00 to 7.00; pIC50 [2, 12]: 6.00 to 7.00; pIC50 [3, 13]: 6.00 to 7.00; pIC50 [4, 14]: 6.00 to 7.00
6 | – | – | – | – | – | – | > 7.00 | > 7.00 | CCN(c1nc(OC[C@@]23CCCN2C[C@H](F)C3)nc2c(F)c(-c3ccc(F)c4sc(N)c(C#N)c34)c(C(F)(F)F)cc12)[C@H]1CC(=O)N(C)C1 [Compound 482] | pIC50 ([1]; KRAS G12D-GppNHp/RAF1 RBD HTRF): 6.00 to 7.00; pIC50 ([2]; KRAS G12R-GppNHp/RAF1 RBD HTRF): 6.00 to 7.00; pIC50 ([3]; KRAS G12V-GppNHp/RAF1 RBD HTRF): 6.00 to 7.00; pIC50 ([4]; KRAS WT-GppNHp/RAF1 RBD HTRF): 6.00 to 7.00
7 | 5.00 to 6.00 | 5.00 to 6.00 | 5.00 to 6.00 | < 5.00 | – | – | – | – | CC1c2cc(C(=O)N(C)C)nn2CCN1c1nc(OCC23CCCN2CC(F)C3)nc2c(F)c(-c3ccc(F)c4sc(N)c(C#N)c34)c(C(F)(F)F)cc12 (stereo not drawn) [Compound 701] | pIC50 (GP2d cells (KRAS G12D); class symbols): > 7.00; pIC50 (SW620 cells (KRAS G12V); SW620 (KRAS G12V) cells, class symbols): > 7.00
8 | – | – | – | – | – | – | > 7.00 | > 7.00 | CC(=O)NCCN(C)c1nc(OC[C@@]23CCCN2C[C@H](F)C3)nc2c(F)c(-c3ccc(F)c4sc(N)c(C#N)c34)c(C(F)(F)F)cc12 [Compound 284] | pIC50 ([1]; KRAS G12D-GppNHp/RAF1 RBD HTRF): 6.00 to 7.00; pIC50 ([2]; KRAS G12R-GppNHp/RAF1 RBD HTRF): 6.00 to 7.00; pIC50 ([3]; KRAS G12V-GppNHp/RAF1 RBD HTRF): 6.00 to 7.00; pIC50 ([4]; KRAS WT-GppNHp/RAF1 RBD HTRF): 6.00 to 7.00
9 | – | – | – | – | – | – | > 7.00 | > 7.00 | CC(=O)N1CCN(c2nc(OC[C@@]34CCCN3C[C@H](F)C4)nc3c(F)c(-c4ccc(F)c5sc(N)c(C#N)c45)c(C(F)(F)F)cc23)C[C@H]1C [Compound 229] | pIC50 [1, 11]: 6.00 to 7.00; pIC50 [2, 12]: 5.00 to 6.00; pIC50 [3, 13]: 5.00 to 6.00; pIC50 [4, 14]: 5.00 to 6.00
10 | – | – | – | – | – | – | < 6.00 | < 6.00 | CC(=O)N1CC[C@H](N(C)c2nc(OC[C@@H]3CCCN3C)nc3c(F)c(-c4ccc(F)c5sc(N)c(C#N)c45)c(C(F)(F)F)cc23)[C@@H]1C [Compound 239] | pIC50 [1, 11]: < 5.00; pIC50 [2, 12]: < 5.00; pIC50 [3, 13]: < 5.00; pIC50 [4, 14]: < 5.00

Row | SMILES | pIC50 [1, 5] | pIC50 [2, 6] | pIC50 [3, 7] | pIC50 [4, 8] | pIC50 (GP2d cells (KRAS G12D); GP2d, class symbols) | pIC50 (SW620 cells (KRAS G12V); [9]) | pIC50 (SW620 cells (KRAS G12V); [10]) | pIC50 (GP2d cells (KRAS G12D); GP2d) | further results
11 | C[C@@H]1[C@H](N(C)c2nc(OC[C@@]34CCCN3C[C@H](F)C4)nc3c(F)c(-c4ccc(F)c5sc(N)c(C#N)c45)c(C(F)(F)F)cc23)CCN1C(=O)CF [Compound 461] | – | – | – | – | – | – | > 7.00 | – | pIC50 ([1]; KRAS G12D-GppNHp/RAF1 RBD HTRF): > 7.00; pIC50 ([2]; KRAS G12R-GppNHp/RAF1 RBD HTRF): 6.00 to 7.00; pIC50 ([3]; KRAS G12V-GppNHp/RAF1 RBD HTRF): 6.00 to 7.00; pIC50 ([4]; KRAS WT-GppNHp/RAF1 RBD HTRF): > 7.00; pIC50 (GP2d cells (KRAS G12D)): > 7.00
